Assay results: patent US20040072825A1, “2-(2-(4-((2r)-2-methyl-3-(10h-phenothiazin-10-yl)propyl)-1-piperazinyl)-ethoxy) ethanol, process for the preparation thereof, pharmaceutical compositions containing said compound and therapeutic uses thereof” (priority 2000, published 2004)
Marks after values point to notes of the source that are not given here.

Experiments:
[1] = tested on: vomiting induced by cisplatin in ferrets; test: Cisplatin-induced emesis in ferrets, single oral administration; type: in vivo, ferret; conditions: for Proportion of animal vomiting: 60 min before cisplatin i.v., 5 h observation
Procedure: Cisplatin-induced emesis in ferrets is largely considered as the most suitable animal model for the study of drug activity against chemotherapy-induced vomiting in man (Georges L. King. Animal models in the study of vomiting. Can. J. Physiol. Pharmacol. 68, 260-268, 1988).
Three compounds, dixyrazine dihydrochloride and its (R) and (S) enantiomers were tested for their activity against vomiting induced by cisplatin in ferrets following single oral administration.
The study involved 14 groups of 8 male ferrets weighing between 0.93 kg and 1.45 kg purchased from the company MARSHALL FARMS (NEW YORK, U.S.). Groups were defined as follows: […]
group 1: control group dosed with the vehicle of test substances (sterile water),
group 2: method-control group dosed with a method-control substance, granisetron ([…], RBI®), at a dose of 0.3 mg/kg,
group 3 to 6: group dosed with diyyrazine dihydrochloride at 4 increasing doses of 7.5, 15, 30 and 60 mg/kg,
group 7 to 10: group dosed with the (R) enantiomer of dixyrazine dihydrochloride at 4 increasing doses of 7.5, 15, 30 and 60 mg/kg,
group 11 to 14: group dosed with the (S) enantiomer of drazine dihydrochloride at 4 increasing doses of 7.5, 15, 30 and 60 mg/kg.
On the day prior to the test, animals were fasted and allowed access only to water.
On the morning of the day of the study, free access to food was allowed for 30 minutes. Subsequently, animals were again put on to a water-only fast for 30 minutes before administration of the three compounds, the vehicle or the method-control substance which were administrated orally in a volume of 5 ml/kg.
Cisplatin was administrated by the intravenous route at a dose of 115 mg/m^2 and in a volume of 115 ml/m^2 (i.e. approximately at 10 mg/kg), 60 minutes after treatment. […] Emesis was characterised by abdominal contractions, which were associated with expulsion or attempted expulsion of stomach contents.
The time to onset of emesis was noted. The number of episodes of vomiting and the number of abdominal retches associated with episodes of emesis were also noted.

[2] = target: human H1 histaminic receptor (Homo sapiens, UniProt P35367); test: Radioligand binding, human H1 receptor (CHO cell culture); conditions: for IC50: H1, competitive binding, read-out: Affinity pIC50 (-log IC50) (converted)
Procedure: (§1) The test substances, biological materials and experimental protocols used in the study are described in Moguilevsky N. et al. (1994) Eur. J. […] List S. J. (1981) Proc. Natl. Acad. Sci.78:2620-2624; MacKenzie R. G. et al. (1994) Eur. J. Pharmacol. 266:79-85; Van Tol et al., (1992) Nature, 358:149-152. […] Filtermat A, Walac), then washed with cold buffer using a filtration unit ‘Cell Harvester’ (Brandel, Packard or Tomtec). The bound radioactivity is measured using a scintillation liquid (Formula 989 or Microscint 0, Packard) or solid (Meltilex B/HS, Wallac), and a scintillation counter (LS 6000, Beckman; Topcount, Packard; Betaplate, Wallac). […] Each experiment was performed in duplicate (n=2). In parallel, a positive control (concentration of reference substance causing 50% inhibition of radioligand specific binding) is tested to validate the assay. For competition experiments, membranes are incubated in the buffer containing the radioligand and increasing concentrations of unlabeled test substances. Each binding assay is validated with a reference compound tested in parallel. […] where BO and BI represent the total binding in the absence and presence of the unlabelled drug (in dpm/assay) and NSB is the amount of non specific binding (in dpm/assay). Analysis of raw data and pIC50 calculation is performed by computerized non-linear curve fitting methods using a set of equations describing competitive interactions between labelled and unlabeled ligands which obey the law of mass action. IC50 represents the concentration of the test substance inhibiting 50% of the specific binding of the radioligand. It is determined in competitive binding experiments by measuring the binding of a single concentration of a radioactive ligand at equilibrium with various concentrations of the unlabeled test substance. pIC50=−log IC50

[3] = target: T1, D4.4 dopaminergic receptor (Homo sapiens, UniProt P21917); test: Radioligand binding, D4.4 receptor (CHO cell culture); conditions: for IC50: D4.4, competitive binding, read-out: Affinity pIC50 (-log IC50) (converted)
T1 construct: expressed in transfected cells; host or cells: CHO
T1 sequence (P21917 1-419): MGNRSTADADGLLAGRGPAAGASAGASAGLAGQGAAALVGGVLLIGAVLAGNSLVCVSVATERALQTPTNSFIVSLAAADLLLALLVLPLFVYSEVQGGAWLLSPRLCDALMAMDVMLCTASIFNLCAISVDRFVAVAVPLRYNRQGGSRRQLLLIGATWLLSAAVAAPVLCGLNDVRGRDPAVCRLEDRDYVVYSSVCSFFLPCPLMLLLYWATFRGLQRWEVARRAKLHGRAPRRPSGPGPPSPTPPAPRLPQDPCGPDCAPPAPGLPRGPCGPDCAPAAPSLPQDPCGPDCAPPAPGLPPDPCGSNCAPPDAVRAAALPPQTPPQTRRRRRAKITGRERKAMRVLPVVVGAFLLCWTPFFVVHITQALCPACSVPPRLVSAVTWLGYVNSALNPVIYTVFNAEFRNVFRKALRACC
Procedure: as §1

[4] = target: T2, 5-HT2 serotonergic receptor (Rattus norvegicus, UniProt P14842); test: Radioligand binding, 5-HT2 receptor (rat cerebral cortex); conditions: for IC50: 5-HT2, competitive binding, read-out: Affinity pIC50 (-log IC50) (converted)
T2 construct: the rat cerebral cortex (5-HT2 receptor); from tissue; host or cells: rat cerebral cortex
Procedure: as §1

[5] = target: T3, human D3 dopaminergic receptor (Homo sapiens, UniProt P35462); test: Radioligand binding, human D3 receptor (CHO cell culture); conditions: for IC50: D3, competitive binding, read-out: Affinity pIC50 (-log IC50) (converted)
T3 construct: expressed in transfected cells; host or cells: CHO
Procedure: as §1

D2 dopaminergic receptor = D2 dopaminergic receptor (Rattus norvegicus, UniProt P61169); test: Radioligand binding, D2 receptor (rat striatum membranes); conditions: for IC50: D2, competitive binding, read-out: Affinity pIC50 (-log IC50) (converted)
Procedure: as §1

[6] = tested on: vomiting and nausea in cancerotherapy; conditions: patients in cancerotherapy, personal interview; cited from earlier work
[7] = highest dose of 60 mg/kg p.o., dihydrochloride, 60 mg/kg
[8] = highest dose of 60 mg/kg p.o., listed as (R) enantiomer of dixyrazine dihydrochloride, dihydrochloride, 60 mg/kg

human H1 histaminic receptor, sequence (P35367 whole entry): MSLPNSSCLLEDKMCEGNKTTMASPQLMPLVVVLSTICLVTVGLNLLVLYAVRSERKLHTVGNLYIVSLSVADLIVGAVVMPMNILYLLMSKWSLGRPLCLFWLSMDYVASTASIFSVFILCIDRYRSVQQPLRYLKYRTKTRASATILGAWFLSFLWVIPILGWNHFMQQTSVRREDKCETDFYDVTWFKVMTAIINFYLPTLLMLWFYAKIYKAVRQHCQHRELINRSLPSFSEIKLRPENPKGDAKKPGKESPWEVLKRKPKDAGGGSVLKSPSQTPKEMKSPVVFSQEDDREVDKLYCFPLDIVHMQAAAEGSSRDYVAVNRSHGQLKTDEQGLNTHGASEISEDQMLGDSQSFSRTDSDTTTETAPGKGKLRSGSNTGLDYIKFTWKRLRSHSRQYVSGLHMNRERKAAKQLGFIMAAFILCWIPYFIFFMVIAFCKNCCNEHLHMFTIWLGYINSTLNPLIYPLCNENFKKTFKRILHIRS
D2 dopaminergic receptor, sequence (P61169 1-415 isoform P61169-2): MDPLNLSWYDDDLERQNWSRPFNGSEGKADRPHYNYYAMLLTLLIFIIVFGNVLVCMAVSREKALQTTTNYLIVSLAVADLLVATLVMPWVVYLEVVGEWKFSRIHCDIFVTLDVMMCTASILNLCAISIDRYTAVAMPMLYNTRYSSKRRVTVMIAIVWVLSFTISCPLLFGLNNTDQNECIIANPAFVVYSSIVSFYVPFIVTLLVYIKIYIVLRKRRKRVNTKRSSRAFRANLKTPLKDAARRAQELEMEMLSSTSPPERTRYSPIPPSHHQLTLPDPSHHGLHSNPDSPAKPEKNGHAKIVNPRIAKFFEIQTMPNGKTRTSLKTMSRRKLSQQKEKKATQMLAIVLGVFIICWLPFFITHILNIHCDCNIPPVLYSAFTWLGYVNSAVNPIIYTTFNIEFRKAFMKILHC
T2 sequence (P14842 whole entry): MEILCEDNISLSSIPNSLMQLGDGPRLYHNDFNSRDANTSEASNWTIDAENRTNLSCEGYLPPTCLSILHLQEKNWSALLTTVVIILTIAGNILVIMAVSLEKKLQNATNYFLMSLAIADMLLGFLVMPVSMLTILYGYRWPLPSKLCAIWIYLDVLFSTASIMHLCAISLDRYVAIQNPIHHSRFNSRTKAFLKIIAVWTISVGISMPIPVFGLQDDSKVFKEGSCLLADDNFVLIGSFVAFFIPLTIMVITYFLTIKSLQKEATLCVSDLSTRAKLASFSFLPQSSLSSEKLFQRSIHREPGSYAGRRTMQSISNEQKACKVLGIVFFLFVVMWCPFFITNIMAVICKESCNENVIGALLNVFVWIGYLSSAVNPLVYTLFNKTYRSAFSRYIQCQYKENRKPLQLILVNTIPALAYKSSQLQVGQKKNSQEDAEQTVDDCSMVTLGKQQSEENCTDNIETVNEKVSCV
T3 sequence (P35462 whole entry): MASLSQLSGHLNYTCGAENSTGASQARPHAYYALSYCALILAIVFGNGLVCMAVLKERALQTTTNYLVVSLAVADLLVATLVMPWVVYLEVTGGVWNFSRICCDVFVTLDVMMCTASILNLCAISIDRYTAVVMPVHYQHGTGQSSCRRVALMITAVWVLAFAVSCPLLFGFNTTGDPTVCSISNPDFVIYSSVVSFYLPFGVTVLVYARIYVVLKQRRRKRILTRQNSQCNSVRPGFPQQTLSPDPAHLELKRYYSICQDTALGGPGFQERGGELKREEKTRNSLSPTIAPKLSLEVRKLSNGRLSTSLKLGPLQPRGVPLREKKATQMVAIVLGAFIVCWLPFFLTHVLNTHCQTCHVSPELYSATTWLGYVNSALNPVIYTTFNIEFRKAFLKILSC

Compound: CN1C2CCCC1CC(NC(=O)c1nn(C)c3ccccc13)C2 (stereo not shown) [Granisetron, reference compound]
- Time to onset of emesis ([1]; 0.3 mg/kg p.o.): 160* minutes
- antiemetic effect (in words) ([1]; 0.3 mg/kg p.o.): significant antiemetic effect
- Proportion of animal vomiting ([1]; 0.3 mg/kg p.o.): 3/8*
- suppression of vomiting, number of animals ([1]; 0.3 mg/kg p.o., 1 hour before cisplatin i.v.): 5 animals out of 8
- effect on time to onset of emesis (in words) ([1]; 0.3 mg/kg p.o., the 3 animals that still vomited): increase in the time to onset of emesis

Compound: C[C@@H](CN1CCN(CCOCCO)CC1)CN1c2ccccc2Sc2ccccc21 (single isomer, unassigned) [(S) enantiomer (free base)]
- percent inhibition of control specific binding ([2]; H1, 10 μM, mean of duplicate): 101%
- percent inhibition of control specific binding ([3]; D4.4, 0.2 μM, mean of duplicate): — (Symbol-represents an inhibition<10%)
- percent inhibition of control specific binding ([3]; D4.4, 10 μM, mean of duplicate): 27%
- percent inhibition of control specific binding ([4]; 5-HT2, 10 μM, mean of duplicate): 101%
- percent inhibition of control specific binding ([5]; D3, 0.2 μM, mean of duplicate): — (Symbol-represents an inhibition<10%)
- percent inhibition of control specific binding ([5]; D3, 10 μM, mean of duplicate): 74%
- percent inhibition of control specific binding (D2 dopaminergic receptor; D2, 10 μM, mean of duplicate): 89%

Compound: Cc1nccn1CC1CCc2c(c3ccccc3n2C)C1=O (stereo not shown) [ondansetron]
- effect on nausea (in words) [6]: no clear-cut effect against the nausea
- effect on vomiting (in words) [6]: clearly effective in preventing vomiting

Compound: C[C@H](CN1CCN(CCOCCO)CC1)CN1c2ccccc2Sc2ccccc21 [(R) enantiomer (free base), 2-(2-{4-[(2R)-2-methyl-3-(10H-phenothiazin-10-yl)propyl]-1-piperazinyl}ethoxy)ethanol]
- inhibition at 10 µM ([2]; H1, 10 μM, mean of duplicate, read-out: percent inhibition of control specific binding): 101%
- inhibition at 0.1 µM ([3]; D4.4, 0.1 μM, mean of duplicate, read-out: percent inhibition of control specific binding): 40%
- inhibition at 10 µM ([3]; D4.4, 10 μM, mean of duplicate, read-out: percent inhibition of control specific binding): 99%
- inhibition at 10 µM ([4]; read-out: percent inhibition of control specific binding, 5-HT2, 10 μM, mean of duplicate): 102%
- inhibition at 0.1 µM ([5]; D3, 0.1 μM, mean of duplicate, read-out: percent inhibition of control specific binding): 81%
- inhibition at 10 µM ([5]; D3, 10 μM, mean of duplicate, read-out: percent inhibition of control specific binding): 100%
- inhibition at 10 µM (D2 dopaminergic receptor; D2, 10 μM, mean of duplicate, read-out: percent inhibition of control specific binding): 100%

Compound: C[C@H](CN1CCN(CCOCCO)CC1)CN1c2ccccc2Sc2ccccc21.Cl.Cl [(R) enantiomer dihydrochloride, 2-(2-{4-[(2R)-2-methyl-3-(10H-phenothiazin-10-yl)propyl]-1-piperazinyl}ethoxy)ethanol dihydrochloride]
- IC50 [2]: 0.2 nM
- Stereoselectivity ratio ([2]; H1, IC50 of (S) enantiomer/IC50 of (R) enantiomer): 25
- IC50 [3]: 158 nM
- Stereoselectivity ratio ([3]; D4.4, IC50 of (S) enantiomer/IC50 of (R) enantiomer): 158
- IC50 [4]: 3.98 nM
- Stereoselectivity ratio ([4]; 5-HT2, IC50 of (S) enantiomer/IC50 of (R) enantiomer): 16
- Time to onset of emesis ([1]; 7.5 mg/kg p.o.): 81 min
- Proportion of animal vomiting ([1]; 7.5 mg/kg p.o.): 5/8
- Time to onset of emesis ([1]; 15 mg/kg p.o.): 80 min
- Proportion of animal vomiting ([1]; 15 mg/kg p.o.): 8/8
- Time to onset of emesis ([1]; 30 mg/kg p.o.): 81 min
- Proportion of animal vomiting ([1]; 30 mg/kg p.o.): 5/8
- Time to onset of emesis ([1]; 60 mg/kg p.o.): 134 min
- suppression of vomiting, number of animals ([1]; 60 mg/kg p.o.): 4 animals out of 8
- Proportion of animal vomiting ([1]; 60 mg/kg p.o.): 4/8*
- antiemetic effect (in words) [1, 7]: induced an antiemetic effect
- effect on time to onset of emesis (in words) [1, 7]: a tendency to increase the time to onset of emesis
- antiemetic effect (in words) [1, 8]: significantly reduce cisplatin-induced emesis
- effect on time to onset of emesis (in words) [1, 8]: clear tendency to delay the latency to onset of the first vomiting episode
- IC50 [5]: 50.1 nM
- Stereoselectivity ratio ([5]; D3, IC50 of (S) enantiomer/IC50 of (R) enantiomer): 63
- IC50 (D2 dopaminergic receptor): 2.51 nM
- Stereoselectivity ratio (D2 dopaminergic receptor; D2, IC50 of (S) enantiomer/IC50 of (R) enantiomer): 316

Compound: C[C@@H](CN1CCN(CCOCCO)CC1)CN1c2ccccc2Sc2ccccc21.Cl.Cl [(S) enantiomer dihydrochloride, 2-(2-{4-[(2S)-2-Methyl-3-(10H-phenothiazin-10-yl)propyl]-1-piperazinyl}ethoxy)ethanol dihydrochloride]
- IC50 [2]: 5.01 nM
- IC50 [3]: 25100 nM
- IC50 [4]: 63.1 nM
- Time to onset of emesis ([1]; 7.5 mg/kg p.o.): 87 min
- Proportion of animal vomiting ([1]; 7.5 mg/kg p.o.): 8/8
- Time to onset of emesis ([1]; 15 mg/kg p.o.): 87 min
- Proportion of animal vomiting ([1]; 15 mg/kg p.o.): 8/8
- Time to onset of emesis ([1]; 30 mg/kg p.o.): 82 min
- Proportion of animal vomiting ([1]; 30 mg/kg p.o.): 7/8
- Time to onset of emesis ([1]; 60 mg/kg p.o.): 68* minutes
- Proportion of animal vomiting ([1]; 60 mg/kg p.o.): 7/8
- pro-emetic properties (in words) ([1]; cisplatin-treated ferrets): undesirable pro-emetic properties
- effect on time to onset of emesis (in words) ([1]; highest dose of 60 mg/kg p.o.): statistically significant decrease in the time of onset of emesis
- antiemetic effect (in words) ([1]; whatever the dose tested (7.5 to 60 mg/kg p.o.), dihydrochloride): no antiemetic effect
- antiemetic effect (in words) ([1]; whatever the dose tested (7.5 to 60 mg/kg p.o.), listed as (S) enantiomer of dixyrazine dihydrochloride, dihydrochloride): inactive in preventing cisplatin-induced emesis
- IC50 [5]: 3160 nM
- IC50 (D2 dopaminergic receptor): 794 nM
